Measured values taken from patent US6919464B1, “Synthetic derivatives of 21-butenyl and related spinosyns” (Dow AgroSciences LLC, priority 2001, dated 2005).

Columns and labels:
Format in all cases: in vivo
Heliothis virescens [1] = assay: Tobacco Budworm (Heliothis virescens) feeding assay, cotton leaf-dip; conditions: second instar larvae; for mortality at 400 ppm / mortality at 1.56 ppm: Heliothis virescens, 96 h
From the text: To compare insecticidal activities of compounds of the invention against second instar larval Heliothis virescens leaf-dip bioassay was used. Cotton cotyledon leaves were dipped in a test solution made up of the compound dissolved in acetone: Millipore water (2:1) at rates of 400 ppm to 1.56 ppm. Each cotyledon was placed individually on top of a moistened (distilled water) cotton ball in the bottom of a 1 oz plastic cup and allowed to dry (one hour). After drying, a single laboratory-reared second instar Heliothis virescens larva (mean weight 15 mg.) was placed on the treated leaf and the cup sealed with a lid, and held at 27° C. for four days. Percent mortality was determined at the end of the holding period.

Heliothis virescens [2] = assay: Tobacco Budworm (Heliothis virescens) topical assay
Protocol: An additional measure of the relative insecticidal activities of the compounds of the invention was generated by using a 1 ug/ul acetone solution of each compound applied at 1 ug/larva of laboratory-reared Heliothis virescens larvae (mean weight of 22 mg). Each compound was applied along the dorsum of each of six larvae. Treated larvae were then held for two days at 21° C., 60% RH in six-well plastic culture plates. Larvae were each supplied with a 1 cm^3 of agar-based lepidoptera diet for sustenance during the two-day post-exposure interval. Percent mortality was determined at the end of a two-day period.

Aphis gossypii = assay: Cotton Aphid (Aphis gossypii) assay, spray on squash seedlings; conditions: rate 50 ppm, relative to plants sprayed with solvent only; for mortality at 50 ppm: Aphis gossypii, 72 h
Protocol: Insecticidal activities of the compounds of the invention were also evaluated against cotton aphids (Aphis gossyppi) as follows. Summer crookneck squash seedlings at the expanded cotyledon stage are primed to a single cotyledon and infested with cotton aphids 16-24 hours before application of the test material by transfer of infested foliage cut from a stock colony. Immediately prior to spray application of the test material, the transfer foliage is removed from the squash plants. The test material is dissolved at 1 mg/ml in 90:10 acetone:alcohol, then diluted in water containing 0.05% Tween 20 (polyethylene (20) sorbitan monolaurate) to give test solution at a concentration of 50 ppm. The plants were sprayed with the test solution using an atomizing sprayer at 17 psi. Both surfaces of the cotyledons are covered until runnoff, and then allowed to dry. Activity of the compound was determined at three days after treatment. Activity was rated as a percent based on the number of aphids present in plants sprayed with solvent only.

For `CCCCCOC1C(OC)C(C)OC(OC2CC3CCC4C5CC(=O)OC(CCCC)CCCC(OC6CCC(N(C)C)C(C)O6)C(C)C(=O)C5=CC4C3C2)C1OC` (stereo not drawn) [Compound A18], the “Tobacco Budworm Feeding (96 h) Mortality (%)” value (from here on “Tobacco Budworm Feeding … (%)”) (Heliothis virescens [1]; rate 1.56 ppm) was 20%, the “Tobacco Budworm Typical (48 h) Mortality (%)” value (“Tobacco Budworm Typical … (%)” below) (Heliothis virescens [2]; rate 1 µg/larva, 48 h) was 33% and the “Cotton Aphid mortality (72 h) Mortality (%)” value (shortened to “Cotton Aphid mortality … (%)”) (Aphis gossypii) was 91%.
In the case of `CC/C=C/[C@H]1CCC[C@H](OC2CC[C@H](N(C)C)[C@@H](C)O2)[C@@H](C)C(=O)C2=CC3C(C=CC4C[C@@H](O[C@@H]5O[C@@H](C)[C@H](OCC)[C@@H](OCC)[C@H]5OC)CC43)C2CC(=O)O1` (stereo partly drawn) [Compound A3, for-(3′,4′-bis-O-ethylrham)-I], the “Tobacco Budworm Typical … (%)” value (Heliothis virescens [2]; in vivo) was 67%.
In the case of `CC=CC(CC(=O)N(C)C)C1CCCC(OC2CCC(N(C)C)C(C)O2)C(C)C(=O)C2=CC3C(C=CC4CC(OC5OC(C)C(OC)C(OCC)C5OC)CC43)C2CC(=O)O1` (stereo not drawn) [Compound A28], the “Tobacco Budworm Feeding … (%)” value (Heliothis virescens [1]; rate 400 ppm) was 100% and the “Cotton Aphid mortality … (%)” value (Aphis gossypii) was 48%.
In the case of `CCC=CC1CCCC(OC2CCC(N(C)C)C(C)O2)C(C)C(=O)C2=CC3C4CC(OC5OC(C)C(OC)C(OCCC)C5OC)CC4CCC3C2CC(=O)O1` (stereo not drawn) [Compound A23], the “Tobacco Budworm Feeding … (%)” value (Heliothis virescens [1]; rate 400 ppm) was 100% and the “Cotton Aphid mortality … (%)” value (Aphis gossypii) was 100%.
With `CCC=CC1CCCC(OC2CCC(N(C)CC)C(C)O2)C(C)C(=O)C2=CC3C(C=CC4CC(OC5OC(C)C(OC)C(OC)C5OC)CC43)C2CC(=O)O1` (stereo not drawn) [Compound D1] the “Tobacco Budworm Typical … (%)” value (Heliothis virescens [2]; rate 1 µg/larva, 48 h) was 83%.
`CC=CC(CC(=O)OC)C1CCCC(OC2CCC(N(C)C)C(C)O2)C(C)C(=O)C2=CC3C(C=CC4CC(OC5OC(C)C(OC)C(OCC)C5OC)CC43)C2CC(=O)O1` (stereo not drawn) [Compound A27] was tested, and the “Tobacco Budworm Typical … (%)” value (Heliothis virescens [2]; rate 1 µg/larva, 48 h) was 100% and the “Cotton Aphid mortality … (%)” value (Aphis gossypii) was 33%.
`CC/C=C/C1CCC[C@H](O[C@H]2CC[C@H](N(C)C=O)[C@@H](C)O2)[C@@H](C)C(=O)C2=CC3C(C=CC4C[C@@H](O[C@@H]5O[C@@H](C)[C@H](OC)[C@@H](OC)[C@H]5OC)CC43)C2CC(=O)O1` (stereo partly drawn) [Compound D4, (N-formyl)-for-rham-I] showed a mortality at 400 ppm (Heliothis virescens [1]; rate 400 ppm) of 100% and a mortality at 50 ppm (Aphis gossypii) of 92%.
In the case of `CCCCOC(C)/C=C/C1CCC[C@H](O[C@H]2CC[C@H](N(C)C)[C@@H](C)O2)[C@@H](C)C(=O)C2=CC3C(C=CC4C[C@@H](O[C@@H]5O[C@@H](C)[C@H](OC)[C@@H](OCCCC)[C@H]5OC)CC43)C2CC(=O)O1` (stereo partly drawn) [Compound A21, (24-O-n-butyl)-for-(3′-O-n-butylrham)-I], the mortality at 400 ppm (Heliothis virescens [1]; rate 400 ppm) was 100% and the mortality at 50 ppm (Aphis gossypii) was 59%.
`CCCOC(C)C=CC1CCCC(OC2CCC(N(C)C)C(C)O2)C(C)C(=O)C2=CC3C(C=CC4CC(OC5OC(C)C(OC)C(OCCC)C5OC)CC43)C2CC(=O)O1` (stereo not drawn) [Compound A20] was tested, and the “Tobacco Budworm Feeding … (%)” value (Heliothis virescens [1]; rate 400 ppm) was 100% and the “Cotton Aphid mortality … (%)” value (Aphis gossypii) was 99%.
In the case of `CC/C=C/[C@H]1CCC[C@H](OC2CC[C@H](N(C)C)[C@@H](C)O2)[C@@H](C)C(=O)C2=CC3C(C=CC4C[C@@H](O[C@@H]5O[C@@H](C)[C@H](OC)[C@@H](OCC)[C@H]5OC)CC43)C2CC(=O)O1` (stereo partly drawn) [Compound A2, for-(3′-O-ethylrham)-I], the mortality at 1.56 ppm (Heliothis virescens [1]; rate 1.56 ppm) was 100%, the “Tobacco Budworm Typical … (%)” value (Heliothis virescens [2]; in vivo) was 100% and the mortality at 50 ppm (Aphis gossypii) was 97%.
With `CCC=CC1CCCC(OC2CCC(N(C)C)C(C)O2)C(C)C(=O)C2=CC3C4CC(OC5OC(C)C(OC)C(OCCCC)C5OC)CC4CCC3C2CC(=O)O1` (stereo not drawn) [Compound A24] the “Tobacco Budworm Feeding … (%)” value (Heliothis virescens [1]; rate 400 ppm) was 100% and the “Cotton Aphid mortality … (%)” value (Aphis gossypii) was 99%.
With `CCC=CC1CCCC(OC2CCC(N(C)C)C(C)O2)C(C)C(=O)C2=CC3C4CC(OC5OC(C)C(OC)C(OCC)C5OC)CC4CCC3C2CC(=O)O1` (stereo not drawn) [Compound A22] the “Tobacco Budworm Feeding … (%)” value (Heliothis virescens [1]; rate 400 ppm) was 100% and the “Cotton Aphid mortality … (%)” value (Aphis gossypii) was 99%.
For `CCCCC1CCCC(OC2CCC(N(C)C)C(C)O2)C(C)C(=O)C2=CC3C4CC(OC5OC(C)C(OCC)C(OCC)C5OC)CC4CCC3C2CC(=O)O1` (stereo not drawn) [Compound B2, 5,6,22,23-tetrahydro-for-(3′,4′-bis-O-ethylrham)-I], the “Tobacco Budworm Typical … (%)” value (Heliothis virescens [2]; rate 1 µg/larva, 48 h) was 83% and the “Cotton Aphid mortality … (%)” value (Aphis gossypii) was 97%.
In the case of `CCOC(C)CCC1CCCC(OC2CCC(N(C)C)C(C)O2)C(C)C(=O)C2=CC3C4CC(OC5OC(C)C(OC)C(OC)C5OC)CC4CCC3C2CC(=O)O1` (stereo not drawn) [Compound A25], the “Tobacco Budworm Typical … (%)” value (Heliothis virescens [2]; rate 1 µg/larva, 48 h) was 83% and the “Cotton Aphid mortality … (%)” value (Aphis gossypii) was 79%.
With `CCCCC1CCCC(OC2CCC(N(C)C)C(C)O2)C(C)C(=O)C2=CC3C4CC(OC5OC(C)C(OC)C(OCC)C5OC)CC4CCC3C2CC(=O)O1` (stereo not drawn) [Compound A15] the “Tobacco Budworm Feeding … (%)” value (Heliothis virescens [1]; rate 6.25 ppm) was 100% and the “Cotton Aphid mortality … (%)” value (Aphis gossypii) was 100%.
In the case of `CCOC(C)C=CC1CCCC(OC2CCC(N(C)C)C(C)O2)C(C)C(=O)C2=CC3C(C=CC4CC(OC5OC(C)C(OC)C(OCC)C5OC)CC43)C2CC(=O)O1` (stereo not drawn) [Compound A19], the “Tobacco Budworm Feeding … (%)” value (Heliothis virescens [1]; rate 400 ppm) was 100% and the “Cotton Aphid mortality … (%)” value (Aphis gossypii) was 99%.
For `CCC=CC1CCCC(OC2CCC(N(C)C(C)=O)C(C)O2)C(C)C(=O)C2=CC3C(C=CC4CC(OC5OC(C)C(OC)C(OC)C5OC)CC43)C2CC(=O)O1` (stereo not drawn) [Compound D5], the “Tobacco Budworm Feeding … (%)” value (Heliothis virescens [1]; rate 400 ppm) was 100% and the “Cotton Aphid mortality … (%)” value (Aphis gossypii) was 92%.
`CCOC(C)/C=C/[C@H]1CCC[C@H](OC2CC[C@H](N(C)C)[C@@H](C)O2)[C@@H](C)C(=O)C2=CC3C(C=CC4C[C@@H](O[C@@H]5O[C@@H](C)[C@H](OC)[C@@H](OC)[C@H]5OC)CC43)C2CC(=O)O1` (stereo partly drawn) [Compound A4, (24-O-thyl) for-rham-I] was tested, and the mortality at 400 ppm (Heliothis virescens [1]; rate 400 ppm) was 100% and the mortality at 50 ppm (Aphis gossypii) was 99%.
`CC/C=C/[C@H]1CCC[C@H](OC2CC[C@H](N(C)C)[C@@H](C)O2)[C@@H](C)C(=O)C2=CC3C4C[C@H](O[C@@H]5O[C@@H](C)[C@H](OC)[C@@H](OC)[C@H]5OC)CC4C4OC4C3C2CC(=O)O1` (stereo partly drawn) [Compound C1, 5,6-epoxy-for-rham-I] gave a mortality at 400 ppm (Heliothis virescens [1]; rate 400 ppm) of 100% and a mortality at 50 ppm (Aphis gossypii) of 95%.
`CCCCC1CCCC(OC2CCC(N(C)C)C(C)O2)C(C)C(=O)C2=CC3C4CC(OC5OC(C)C(OC)C(OCCC)C5OC)CC4CCC3C2CC(=O)O1` (stereo not drawn) [Compound A16] was tested, and the “Tobacco Budworm Feeding … (%)” value (Heliothis virescens [1]; rate 6.25 ppm) was 100% and the “Cotton Aphid mortality … (%)” value (Aphis gossypii) was 100%.
With `CCCC[C@H]1CCC[C@H](O[C@H]2CC[C@H](N(C)C)[C@@H](C)O2)[C@@H](C)C(=O)C2=CC3C4C[C@H](O[C@@H]5O[C@@H](C)[C@H](O)[C@@H](OC)[C@H]5OC)CC4CCC3C2CC(=O)O1` (stereo partly drawn) [Compound A14, 5,6,22,23-tetrahydro for-(4′-O-desmethylrham)-I] the “Tobacco Budworm Typical … (%)” value (Heliothis virescens [2]; in vivo) was 83% and the mortality at 50 ppm (Aphis gossypii) was 92%.
`CC/C=C/[C@H]1CCC[C@H](OC2CC[C@H](N(C)C)[C@@H](C)O2)[C@@H](C)C(=O)C2=CC3C(C=CC4C[C@@H](O[C@@H]5O[C@@H](C)[C@H](OC)[C@@H](OCCC)[C@H]5OC)CC43)C2CC(=O)O1` (stereo partly drawn) [Compound A6, for-(3′-O-n-propylrham)-I] was tested, and the “Tobacco Budworm Typical … (%)” value (Heliothis virescens [2]; in vivo) was 100% and the mortality at 50 ppm (Aphis gossypii) was 54%.
Work on `CC/C=C/[C@H]1CCC[C@H](OC2CC[C@H](N(C)C)[C@@H](C)O2)[C@@H](C)C(=O)C2=CC3C(C=CC4C3C[C@H](O[C@@H]3O[C@@H](C)[C@H](OC)[C@@H](OC)[C@H]3OC)[C@H]4OCC)C2CC(=O)O1` (stereo partly drawn) [Compound A5, (8-O-ethyl)-for-rham-III] yielded a mortality at 400 ppm (Heliothis virescens [1]; rate 400 ppm) of 100% and a mortality at 50 ppm (Aphis gossypii) of 53%.
With “5,6,22,23-tetrahydro-for-(3′,4′-methylenedioxyrham)-I [Compound A26]” the “Tobacco Budworm Typical … (%)” value (Heliothis virescens [2]; in vivo) was 83%.
`COC1C(C)OC(OC2CC3CCC4C5CC(=O)OC(CCC(C)O)CCCC(OC6CCC(N(C)C)C(C)O6)C(C)C(=O)C5=CC4C3C2)C(OC)C1OC` (stereo not drawn) [Compound B17] was tested, and the “Tobacco Budworm Typical … (%)” value (Heliothis virescens [2]; rate 1 µg/larva, 48 h) was 17% and the “Cotton Aphid mortality … (%)” value (Aphis gossypii) was 11%.
`CC/C=C/[C@H]1CCC[C@H](OC2CC[C@H](N(C)C)[C@@H](C)O2)[C@@H](C)C(=O)C2=CC3C(C=CC4C[C@@H](O[C@@H]5O[C@@H](C)[C@H](OC)[C@@H](OC)[C@H]5OCC)CC43)C2CC(=O)O1` (stereo partly drawn) [Compound A1, for-(2′-O-ethylrham)-I] was tested, and the mortality at 1.56 ppm (Heliothis virescens [1]; rate 1.56 ppm) was 100% and the mortality at 50 ppm (Aphis gossypii) was 87%.
